Assay results from ChEMBL document CHEMBL4308866, “Rotenoisin A is a novel anti-adipogenic compound” (Bioorg Med Chem Lett, 2019).
Activity calls are given as the source filed them. No cut-off for these calls is given here.

What was measured:
[1] = target: T1, 5'-AMP-activated protein kinase (Mus musculus) (UniProt Q5EG47+Q8BRK8+Q6PAM0+O54950+Q91WG5+Q9R078+Q8BGM7); assay: Activation of AMPK in mouse 3T3L1 adipocytes in DMI differentiation media assessed as decrease in PPARgamma expression after 4 to 8 days by Western blot analysis; type: cell-based; details: 3T3-L1
[2] = target: T1, 5'-AMP-activated protein kinase (Mus musculus); assay: Activation of AMPK in mouse 3T3L1 adipocytes in DMI differentiation media at 1.5 ug/ml after 24 hrs in presence of AMPK inhibitor compound C by Western blot analysis; type: cell-based; details: 3T3-L1
[3] = target: T1, 5'-AMP-activated protein kinase (Mus musculus); assay: Activation of AMPK in mouse 3T3L1 adipocytes in DMI differentiation media assessed as decrease in PPARgamma expression at 1.5 ug/ml after 6 days in presence of AMPK inhibitor compound C by Western blot analysis; type: cell-based; details: 3T3-L1
[4] = target: T1, 5'-AMP-activated protein kinase (Mus musculus); assay: Activation of AMPK in mouse 3T3L1 adipocytes in DMI differentiation media assessed as decrease in C/EBPbeta expression at 1.5 ug/ml after 24 hrs in presence of AMPK inhibitor compound C by Western blot analysis; type: cell-based; details: 3T3-L1
[5] = target: T1, 5'-AMP-activated protein kinase (Mus musculus); assay: Activation of AMPK in mouse 3T3L1 adipocytes in DMI differentiation media assessed as decrease in PPARgamma mRNA expression after 4 days by RP-PCR analysis; type: cell-based; details: 3T3-L1
[6] = target: T1, 5'-AMP-activated protein kinase (Mus musculus); assay: Activation of AMPK in mouse 3T3L1 adipocytes in DMI differentiation media assessed as decrease in aP2 expression after 4 to 8 days by Western blot analysis; type: cell-based; details: 3T3-L1
3T3-L1 [7] = assay: Induction of morphological changes in mouse 3T3L1 cells; type: cell-based
3T3-L1 [8] = assay: Effect on total AMPK expression in mouse 3T3L1 adipocytes in DMI differentiation media at 0.4 to 1.5 ug/ml after 4 to 8 days by Western blot analysis; type: ADME, cell-based
[9] = target: T1, 5'-AMP-activated protein kinase (Mus musculus); assay: Activation of AMPK in mouse 3T3L1 adipocytes in DMI differentiation media assessed as increase in ACC phosphorylation in presence of AMPK inhibitor compound C by Western blot analysis; type: cell-based; details: 3T3-L1
3T3-L1 [10] = assay: Cytotoxicity against mouse 3T3L1 cells assessed as effect on cell viability up to 1.5 ug/ml after 4 to 8 days by MTT assay; type: cell-based
[11] = target: AMP-activated protein kinase, AMPK (Homo sapiens) (UniProt P54646+O43741+P54619+Q9UGJ0+Q9Y478+Q13131+Q9UGI9); assay: Activation of AMPK (unknown origin) at 0.4 to 1.5 ug/ml; type: protein-complex assay
[12] = target: T1, 5'-AMP-activated protein kinase (Mus musculus); assay: Activation of AMPK in mouse 3T3L1 adipocytes in DMI differentiation media assessed as decrease in FAS expression after 4 to 8 days by Western blot analysis; type: cell-based; details: 3T3-L1
[13] = target: T1, 5'-AMP-activated protein kinase (Mus musculus); assay: Activation of AMPK in mouse 3T3L1 adipocytes in DMI differentiation media assessed as increase in ACC phosphorylation after 4 to 8 days by Western blot analysis; type: cell-based; details: 3T3-L1
[14] = target: T1, 5'-AMP-activated protein kinase (Mus musculus); assay: Activation of AMPK phosphorylation at […] residue in mouse 3T3L1 adipocytes in DMI differentiation media after 4 to 8 days by Western blot analysis; type: cell-based; details: 3T3-L1
[15] = target: T1, 5'-AMP-activated protein kinase (Mus musculus); assay: Activation of AMPK in mouse 3T3L1 adipocytes in DMI differentiation media assessed as decrease in C/EBPbeta mRNA expression after 4 days by RP-PCR analysis; type: cell-based; details: 3T3-L1
[16] = target: T1, 5'-AMP-activated protein kinase (Mus musculus); assay: Activation of AMPK in mouse 3T3L1 adipocytes in DMI differentiation media assessed as decrease in LPL expression after 4 to 8 days by Western blot analysis; type: cell-based; details: 3T3-L1
3T3-L1 [17] = assay: Anti-adipogenic activity in mouse 3T3L1 preadipocytes assessed as inhibition of insulin/dexamethasone/isobutylmethylxanthine induced-cell differentiation treated every 2 days following compound washout for 8 days by Oil-red O staining based assay; type: functional
3T3-L1 [18] = assay: Anti-adipogenic activity in mouse 3T3L1 adipocytes assessed as inhibition of insulin/dexamethasone/isobutylmethylxanthine induced-triglyceride accumulation at 0.4 ug/ml treated every 2 days following compound washout for 8 days by ELISA relative to control; type: functional
3T3-L1 [19] = assay: Anti-adipogenic activity in mouse 3T3L1 preadipocytes assessed as inhibition of insulin/dexamethasone/isobutylmethylxanthine induced-lipid accumulation treated every 2 days following compound washout for 8 days by Oil-red O staining based assay; type: functional, cell-based
[20] = target: T1, 5'-AMP-activated protein kinase (Mus musculus); assay: Activation of AMPK in mouse 3T3L1 adipocytes in DMI differentiation media assessed as decrease in C/EBPalpha mRNA expression after 4 days by RP-PCR analysis; type: cell-based; details: 3T3-L1
[21] = target: T1, 5'-AMP-activated protein kinase (Mus musculus); assay: Activation of AMPK in mouse 3T3L1 adipocytes in DMI differentiation media assessed as decrease in C/EBPbeta expression after 4 to 8 days by Western blot analysis; type: cell-based; details: 3T3-L1
[22] = target: T1, 5'-AMP-activated protein kinase (Mus musculus); assay: Activation of AMPK in mouse 3T3L1 adipocytes in DMI differentiation media assessed as decrease in C/EBPalpha expression after 4 to 8 days by Western blot analysis; type: cell-based; details: 3T3-L1
[23] = target: T1, 5'-AMP-activated protein kinase (Mus musculus); assay: Activation of AMPK in mouse 3T3L1 adipocytes in DMI differentiation media assessed as decrease in C/EBPalpha expression at 1.5 ug/ml after 6 days in presence of AMPK inhibitor compound C by Western blot analysis; type: cell-based; details: 3T3-L1
3T3-L1 [24] = assay: Anti-adipogenic activity in mouse 3T3L1 adipocytes assessed as inhibition of insulin/dexamethasone/isobutylmethylxanthine induced-triglyceride accumulation at 1.5 ug/ml treated every 2 days following compound washout for 8 days by ELISA relative to control; type: functional
[25] = target: T1, 5'-AMP-activated protein kinase (Mus musculus); assay: Activation of AMPK in mouse 3T3L1 adipocytes in DMI differentiation media at 0.4 to 1.5 ug/ml after 8 days by Western blot analysis; type: cell-based; details: 3T3-L1
[26] = target: T1, 5'-AMP-activated protein kinase (Mus musculus); assay: Activation of AMPK phosphorylation at […] residue in mouse 3T3L1 adipocytes in DMI differentiation media in presence of AMPK inhibitor compound C by Western blot analysis; type: cell-based; details: 3T3-L1

What does the source list for `C=C(C)[C@H]1Cc2c(ccc3c2O[C@@H]2COc4cc(OC)c(OC)cc4[C@@H]2[C@@]32CO2)O1` [ROTENOISIN A]?
Activity [1]: Dose-dependent effect; Activity [2]: inactive; Activity [3]: inactive; Activity [4]: inactive; Activity [5]: Dose-dependent effect; Activity [6]: Dose-dependent effect; Activity (3T3-L1 [7]): Non-Toxic; Activity (3T3-L1 [8]): Non-Toxic; Activity [9]: inactive; Activity (3T3-L1 [10]): Non-Toxic; Activity [11]: inactive; Activity [12]: Dose-dependent effect; Activity [13]: Dose-dependent effect; Activity [14]: Dose-dependent effect; Activity [15]: Dose-dependent effect; Activity [16]: Dose-dependent effect; inhibition (3T3-L1 [17]): Dose-dependent effect; inhibition at 0.4 µg/mL (3T3-L1 [18]): 23%; inhibition (3T3-L1 [19]): Dose-dependent effect; Activity [20]: Dose-dependent effect; Activity [21]: Dose-dependent effect; Activity [22]: Dose-dependent effect; Activity [23]: inactive; inhibition at 1.5 µg/mL (3T3-L1 [24]): 57%; Activity [25]: Active; Activity [26]: inactive
